# Data as given in patent publication US9540299B2, “MTOR-independent activator of TFEB for autophagy enhancement and uses thereof” (Hong Kong Baptist University, priority 2015, dated 2017).
# Legend:
# Hela cells = assay: Western blot of TFEB, LC3-II, LAMP1, CTSD in Hela cells; type: cell-based, human
# Method: Various gene expressions in Hela cells (FIG. 7A) and SH-SY5Y cells (FIG. 7B) after treated with C1 (1 μM) for 12 h. mRNA transcript abundance is assessed by real-time PCR using specific primers for the indicated genes. Relative quantification (RQ) is presented as means±SD of three independent experiments. FIG. 7C is western blot showing the protein levels of autophagy marker (LC3-II), TFEB and lysosome markers (LAMP1, CTSD) in Hela and SH-SY5Y cells having treated with C1 (0.5, 1 μM) or sucrose (100 mM) for 12 h. The relative intensity of autophagy marker (LC3-II), TFEB and lysosome markers (LAMP1, CTSD) normalized to that of ACTB/β-actin in Hela cells (FIG. 7D) and SH-SY5Y cells (FIG. 7E). Data are presented as the mean±SD from three independent experiments. *p<0.05 vs. the control (0.1% DMSO). […] Autophagy-enhancing effect of C1 is TFEB-dependent. Data are presented as the mean±SD from three independent experiments. *p<0.05 vs. the control. N. S.=not significant.
# N2a, Hela and Hela cells stably expressing 3×-Flag-TFEB are cultured in DMEM supplemented with 10% FBS. SH-SY5Y cells are cultured in DMEM/F12 supplemented with 10% FBS. For drug treatment, the full medium is replaced by fresh Opti-MEM I and then the compounds (in 0.1% DMSO) are added to the cells and incubated for 12 h. Inducible PC12 cells overexpressing SNCA (WT and A53T) (a kind gift from Prof. David C. Rubinsztein at Cambridge University) are grown in DMEM supplemented with 10% horse serum, 5% FBS, 50 μg/ml G418, and 150 μg/ml hygromycin B at 37° C., 10% CO2. Cells are treated with 2 μg/ml doxycycline (Dox) for 24 h to induce SNCA expression. The full medium is changed to Opti-MEM I containing the testing compounds for another 48 h. […]
# Cells are lysed on ice in 1× Lysis Buffer (9803, Life Technologies) with complete protease inhibitor mixture (04693124001, Roche Applied Science). […] The protein signals are detected by ECL kit (32106, Pierce) and quantified using ImageJ software.
# [1] = Acute toxicity by single-dose intravenous tail vein injection; conditions: Sprague-Dawley, rat, in vivo, rats, read-out: medium lethal dose (LD50)
# N2a cells [2] = assay: LC3 puncta and tfLC3 autophagy flux imaging in N2a cells; type: cell-based, mouse
# Method: N2a cells are treated with E4 (1 μM) in the presence or absence of CQ for 12 hours. The cells are fixed and stained with LC3 antibody (red) and DAPI (blue). Representative cells are then selected and photographed under a DeltaVision Deconvolution Microscope (GE Healthcare).
# N2a cells are transiently transfected with mRFP-GFP-LC3 (tfLC3) plasmid and then treated with E4 (1 μM) or CQ (1 μM) for 12 hours. Representative cells are then selected and photographed under a DeltaVision Deconvolution Microscope (GE Healthcare).
# After transiently knockdown the expression of TFEB, N2a cells are treated with E4 (1 μM) for 12 hours, the cells were then stained with LC3 antibody (red) and DAPI (blue).
# Cells are seeded on coverslips placed in 24-well plates. For autophagy flux assay, cells are transfected with tfLC3 plasmid for 24 hours and then treated with the indicated compounds. For other assays, at the end drug treatment, slices are fixed with 3.7% paraformaldehyde, permeabilized in 0.2% Triton X-100 and blocked with 5% BSA. After blocking, the slices are stained with anti-TFEB (1:200) or anti-LC3 (1:500) antibodies overnight at 4° C. […] Cells are visualized using the Eclipse 80i fluorescence microscope (Nikon Instruments Inc.) or the DeltaVision Deconvolution Microscope (GE Healthcare).
# N2a cells [3] = assay: Lysosomal markers LAMP1 and CTSD by western blot in N2a cells; type: cell-based, mouse; conditions: 12 hours
# Method: N2a cells are treated with different concentrations (0-1 μM) of E4 for 12 hours. Torin 1 (1 μM) is used as a positive control. The expression of LAMP1, pro-CTSD and mature CTSD (M-CTSD) are determined by western blotting (FIG. 25A) and quantified (FIG. 25B). Quantification data are presented as the mean±SD from three independent experiments. *p<0.05, **p<0.01 vs. the control (0.1% DMSO).
# After transiently knockdown the expression of TFEB, N2a cells are treated with E4 (1 μM) for 12 hours, the expression of LAMP1, Pro-CTSD and mature CTSD (M-CTSD) are detected by Western blotting (FIG. 29A). Quantification data are presented as the mean±SD from three independent experiments FIG. 29B. **p<0.01 vs. the control (0.1% DMSO).
# N2a and HeLa cells are cultured in DMEM supplemented with 10% FBS. HeLa cells stably expressing 3×-Flag-TFEB are maintained in DMEM supplemented with 10% FBS and 500 μg/mL G418. For drug treatment, the full medium is replaced by fresh Opti-MEM I containing the compounds (in 0.1% DMSO) and incubated for the indicated time periods.
# N2a cells are transfected with mouse Tfeb siRNA and the non-target siRNA using Lipofectamine RNAiMAX (13778030, Invitrogen) and incubated at 37° C. for 72 hours.
# Cells are lysed on ice in 1× Lysis Buffer (9803, Life Technologies) with complete protease inhibitor mixture (04693124001, Roche Applied Science) and phosphatase inhibitor (B15001, Biotool). Cytosolic and nuclear fractions are isolated using protocols similar to those described previously. Proteins are separated by 10-15% SDS-PAGE, transferred, and blotted with the antibodies described. The blots are then incubated with primary and secondary antibodies. The protein signals are detected by the ECL kit (32106, Pierce) and quantified using ImageJ software.
Compound,"autophagy/lysosomal biogenesis (LC3-II, LAMP1, CTSD protein levels) (Hela cells; Hela cells, 0.5, 1 μM, 12 h)","protein levels of TFEB (Hela cells; Hela cells, 0.5, 1 μM, 12 h)","increase in LC3-II levels in cells transfected with TFEB siRNA (Hela cells; Hela cells, siTFEB 100 nM 72 h, then 1 μM 12 h)",LD50 [1] [mg/kg],"mRFP-GFP-LC3 (tfLC3) puncta (autophagy flux, autolysosome formation) (N2a cells [2]; N2a cells transfected with tfLC3, 12 hours)","LC3 punctuates in the presence of CQ (N2a cells [2]; N2a cells, 1 μM, 12 hours)","LC3 punctuates compared to vehicle control (N2a cells [2]; N2a cells, 1 μM, 12 hours, endogenous LC3 staining)","levels of Pro-CTSD and mature CTSD (M-CTSD) (N2a cells [3]; 0-1 μM, dose-dependent manner)","levels of the lysosomal marker LAMP1 (N2a cells [3]; 0-1 μM, dose-dependent manner)","LAMP1, pro-CTSD and CTSD levels in control (non-target siRNA) cells (N2a cells [3]; 1 μM)"
"COc1ccccc1/C=C/C(=O)/C=C/c1ccccc1OC [C1, 1,5-bis(2-methoxyphenyl)penta-1,4-dien-3-one]",activated,increased,blocked,175,–,–,–,–,–,–
O=C(/C=C/c1ccccc1I)/C=C/c1ccccc1I [E4],–,–,–,–,significantly increases the number of red-only puncta,further enhances,significantly increases,increases,significantly increases,significantly increases
